Reference: article PMC12587161, “Chidamide (a Histone Deacetylase Inhibitor) Plus Abiraterone in Metastatic Castration‐Resistant Prostate Cancer (mCRPC): A Phase Ib Trial” (MedComm, 2025)
Entries after “also recorded” stand apart in the source; their conditions may differ. Like-named read-outs stand apart in the source and are kept apart here.

How the values were obtained:
[1] = system: chemotherapy-naïve mCRPC patients; design: method as in PMID 19608618; conditions: cited from earlier work
patients with mCRPC = format: in vivo
Procedure: Chidamide was tested in three dose groups (20 mg, 25 mg, 30 mg). The starting dose was 20 mg per dose, administered twice a week, with a treatment cycle lasting 4 weeks. Dosing occurred on fixed days of each week, with two doses administered on the same day each week for the duration of the 4‐week cycle. Three participants are enrolled in each dosage group. If no DLT occurred during the first treatment cycle, the dose was escalated and three patients were enrolled at the next dose level. However, if one DLT was observed, three additional patients were added at the same dose level for further assessment. If no new DLTs occur, the study continues to the next dose level. If two or more of the six patients at a given dose level developed a DLT, further dose escalation was halted, and the prior dose level was determined to be the MTD. Abiraterone was combined with the second administration of chidamide on Day 4 of the first cycle. The observation for DLT was in the period of first cycle of treatment. […]

[2] = system: AR downstream genes (PSA, TMPRSS2, SLC45A3) in C4-2 cells; assay: RT-PCR of AR downstream genes; format: cell-based; conditions: chidamide 0.5 µM
Procedure: (§1) FIGURE 5 Chidamide inhibited AR pathway and CRPC progression and in vitro. (A) Effect of chidamide and enzalutamide on cell viability. C4‐2 cells were treated with DHT (10 nM), chidamide (0.5 µM), and/or enzalutamide (20 µM) for 96 h. Cell viability was measured by CCK‐8. […] DHT (10 nM) served as control.
Total cellular RNA was isolated using EZ‐press RNA Purification Kit (EZBioscience, USA) according to the manufacturer's protocol. For first‐strand cDNA synthesis, 5 µg of total RNA was reverse‐transcribed using the PrimeScript RT Master Mix (Perfect Real Time, TaKaRa Bio, Kusatsu, Japan) followed by quantitative PCR (qPCR) with 2 × Taq Master Mix (Vazyme Biotech Co., Ltd, China) according to the manufacturer's instructions. Real‐time PCR analyses were conducted using the Biorad CFX96 system and the appropriate primers to estimate the mRNA expression. The primer sequences were as follows: for PSA, forward 5′‐[…]‐3′ and reverse 5′‐[…]‐3′; for TMPRSS2, forward 5′‐[…]‐3′ and reverse 5′‐[…]‐3′; for SLC45A3, forward 5′‐[…]‐3′ and reverse 5′‐[…]‐3′; for GAPDH, forward 5′‐[…]‐3′ and reverse 5′‐[…]‐3′.

C4-2 cells = assay: Cell viability by CCK-8; format: cell-based; conditions: DHT 10 nM, chidamide 0.5 µM and/or enzalutamide 20 µM, 96 h
Procedure: as §1
C4‐2 cell line was provided by Prof. Yonghong Li (Sun Yat‐sen University Cancer Center) and validated by short tandem repeat (STR). C4‐2 cells were grown in RPMI 1640 containing 10% FBS.

[3] = Chidamide pharmacokinetics in patients (compartmental modeling, Phoenix Winnonlin 7.0); format: in vivo; conditions: male, human, plasma, mCRPC patients, after first administration; for AUC(0-t): read-out: AUC0–24 h, Mean; for clearance: read-out: CL, Mean (converted); for Vd: read-out: Vss, Mean; for half-life: read-out: t 1/2, Mean (converted)
Procedure: From patients administered with different doses of chidamide, blood samples were collected in a sodium heparin tube at the time points of 2, 4, 8, 12, and 24 h after the completion of the first administration of chidamide (Day 1) in treatment cycle 1 and cycle 2. PK parameters were estimated from chidamide concentrations measured using […] samples taken at specified time points postdosing, and were analyzed by Phoenix Winnonlin 7.0.

Compound: C/C=C1\NC(=O)[C@H]2CSSCC/C=C/[C@H](CC(=O)N[C@H](C(C)C)C(=O)N2)OC(=O)[C@H](C(C)C)NC1=O [romidepsin]
- Time to progression (TTP) [1]: 1.8 months

Compound: Nc1cc(F)ccc1NC(=O)c1ccc(CNC(=O)/C=C/c2cccnc2)cc1 [chidamide, Chidamide]
- Chidamide-related SAEs (patients with mCRPC; all 18 patients): No chidamide‐related SAEs were observed
- Dose-limited toxicity (DLT) (patients with mCRPC; dose escalation 20, 25, 30 mg chidamide, first cycle): none of the patients experienced a DLT
- Relative mRNA expression of PSA [2]: significantly downregulated; also recorded: decreased
- Relative mRNA expression of SLC45A3 [2]: significantly downregulated; also recorded: decreased
- Relative mRNA expression of TMPRSS2 [2]: significantly downregulated; also recorded: decreased
- Cell viability (C4-2 cells): effectively inhibits the cell viability
- Cmax ([3]; 20 mg (N = 4)): 79.2 ng/mL
- AUC(0-t) ([3]; 20 mg (N = 4)): 1330 ng·h/mL
- clearance ([3]; 20 mg (N = 4)): 170 mL/min
- Vd ([3]; 20 mg (N = 4)): 207 L
- half-life ([3]; 20 mg (N = 4)): 13.9 h
- Cmax ([3]; 25 mg (N = 11)): 91.2 ng/mL
- AUC(0-t) ([3]; 25 mg (N = 11)): 1160 ng·h/mL
- clearance ([3]; 25 mg (N = 11)): 260 mL/min
- Vd ([3]; 25 mg (N = 11)): 326 L
- half-life ([3]; 25 mg (N = 11)): 13.6 h
- Cmax ([3]; 30 mg (N = 3)): 296 ng/mL
- AUC(0-t) ([3]; 30 mg (N = 3)): 2860 ng·h/mL
- clearance ([3]; 30 mg (N = 3)): 188 mL/min
- Vd ([3]; 30 mg (N = 3)): 132 L
- half-life ([3]; 30 mg (N = 3)): 8.06 h
